Laboratory results reported in patent US20250032383A1, “PERSONAL CARE COMPOSITION” (Conopco, Inc., d/b/a UNILEVER, priority 2021, published 2025).

Test system: MelaKuits® living skin equivalent models
Experiment: skin brightening efficacy in UVB-irradiated living skin equivalent models, lightness (L*) by DSM II Color Meter
Format: cell-based
Description: The skin brightening efficacy were evaluated by using MelaKuits® living skin equivalent models (Biocell, Xi'an, China). A series of identical living skin equivalent models were constructed by following manufacturer's instruction. After the models were constructed, the models were irradiated by UVB with an energy density of 50 mJ/cm^2, followed by culturing in fresh medium with or without actives for one day. Such irradiating and culturing process were repeated by using refreshed same medium for seven times. The lightness (L*) of each model were measured by using a DSM II Color Meter. The measurements of lightness were repeated at least three times. Similar experiments were conducted as that in Example 1 except that niacinamide was used and different batch of live equivalent models were used. The original lightness of the live equivalent models was different from that in Example 1.

Lysine carboxymethyl cysteinate [LCC]
improvement of the skin brightening efficacy of niacinamide (in words) (LCC 0.27 wt % added to 3 wt % niacinamide, Table 2): not capable of improving the skin brightening efficacy of niacinamide

NC(=O)c1cccnc1 [niacinamide, reference compound]
Average lightness (L*) (Example 2, different batch of models, UVB, 3 wt % of niacinamide in medium (UVB + medium only 66.86; blank control 71.43)): 71.15

CCCCCCC(O)CCCCCCCCCCC(=O)O (stereo not drawn) [12-HSA, 12-hydroxystearic acid]
Average lightness (L*) (Example 1 batch, UVB 50 mJ/cm^2, irradiating and culturing repeated seven times, 10 μM of 12-HSA in medium (UVB + medium only 32.4; blank control 43.4)): 35.2
